In one series the test system is P. berghei. Briefly: Inhibition of P. berghei blood parasitaemia in infected mice (oral). It is filed as in vivo. The conditions noted are these: Plasmodium berghei, 96 h, read-out: Percentage Inhibitions of P. berghei; for inhibition in vivo at 100 mg/kg: 7 × 100 mg/kg, parasitaemia on fourth day vs untreated controls; for inhibition in vivo at 50 mg/kg: 7 × 50 mg/kg. An excerpt: Groups of five mice were inoculated intraperitoneally with the normal strain of P. berghei. The mice on test received seven oral doses of drug begining on the afternoon of the day of infection then twice a day for the following three days. Blood parasitaemias were estimated on the fourth day and compared with those of the untreated controls.
The results are given in Table 1, the results being expressed as percentage inhibition of P.berghei.

The next series in a line: Oral LD50 in mice. To be noted: mouse, in vivo, suspension in 0.25% Celacol. As for the experimental part: The LD50 of the compound of Example 4 was determined in mice by conventional methods, the compound being administered orally as a suspension in 0.25% Celacol.
The subject of series [1] is Eimeria tenella. As to the kind of experiment: Inhibition of Eimeria tenella in monolayer cultures of chick embryo liver cells. It counts as cell-based. To be noted: fixed 90 hours after infection, scale 0 to 4. On the procedure: Monolayer cultures of chick embryo liver cells were seeded onto microtitration plates and treated with the test compound (formulated by suspension in ethanol (0.05 ml) followed by dilution with sterile water (0.95 ml). Sporozoites of Eimeria tenella in culture medium were added and the culture fixed 90 hours after infection. The percentage inhibition compared to controls was determined, the results being expressed on a sacle of 0(0-10% inhibition) to 4(91-100% inhibition). The results are given in Table 2.

In series [2] the test system is Eimeria tenella. Briefly: Index of inhibition, 400ppm in vivo (Table 2). To be noted: scale 0 to 4.

Turning to `Cc1ccc(SCc2ncon2)cc1` [Example 1, 3-(4-Methylphenylthiomethyl)-1,2,4-oxadiazole], in the series on P. berghei, the inhibition in vivo at 100 mg/kg is 38%.

Consider `Brc1ccc(SCc2ncon2)cc1` [Example 3, 3-(4-Bromophenylthiomethyl)-1,2,4-oxadiazole], for which the inhibition in vivo at 100 mg/kg in the series with P. berghei was found to be 71%.

As usually defined, the LD50 is the dose at which mortality reaches 50%. For the compound `c1ccc(SCc2ncon2)cc1` [Example 4, 3-Phenylthiomethyl-1,2,4-oxadiazole], the inhibition in vivo at 100 mg/kg in the series on P. berghei was found to be 49%. In “Oral LD50 in mice”, the LD50 is approximately 1600 mg/kg.

Consider `Brc1ccccc1SCc1ncon1` [Example 5, 3-(2-Bromophenylthiomethyl)-1,2,4-oxadiazole], for which, in the series on P. berghei (7 × 80 mg/kg), the inhibition in vivo at 80 mg/kg worked out at 2%. The “Index of Inhibition” value with Eimeria tenella [1] (20μg/ml) was 1.

Turning to `COc1ccccc1SCc1ncon1` [Example 6, 3-(2-Methoxyphenylthiomethyl)-1,2,4-oxadiazole], in the series with P. berghei, the inhibition in vivo at 50 mg/kg came out at 5%.

Regarding `c1ccc(Sc2cccc(SCc3ncon3)c2)cc1` [Example 7, 3-(3-Phenylthiophenylthiomethyl)-1,2,4-oxadiazole], the inhibition in vivo at 100 mg/kg in the series on P. berghei stood at 2%. Besides, the “Index of Inhibition” value in the series on Eimeria tenella [1] (20μg/ml) was determined as 1.

For the compound `Cc1cccc(SCc2ncon2)c1` [Example 8, 3-(3-Methylphenylthiomethyl)-1,2,4-oxadiazole], the “Index of Inhibition” value with Eimeria tenella [1] (20μg/ml) is 3.

`Nc1cccc(SCc2ncon2)c1` [Example 9, 3-(3-Aminophenylthiomethyl)-1,2,4-oxadiazole]: in the series with P. berghei, the inhibition in vivo at 100 mg/kg stood at 34%. Also, in the series with Eimeria tenella [1] (20μg/ml), the “Index of Inhibition” value is given as 2.

For `COc1cccc(SCc2ncon2)c1` [Example 10, 3-(3-Methoxyphenylthiomethyl)-1,2,4-oxadiazole], the “Index of Inhibition” value with Eimeria tenella [1] (5μg/ml) was 4 (91-100% inhibition).

For `O=[N+]([O-])c1ccc(SCc2ncon2)cc1` [Example 12, 3-(4-Nitrophenylthiomethyl)-1,2,4-oxadiazole], the inhibition in vivo at 100 mg/kg in the series with P. berghei was 14%. In addition, the “Index of Inhibition” value in the series with Eimeria tenella [1] (20μg/ml) is listed as 4 (91-100% inhibition).

Turning to `COc1ccc(SCc2ncon2)cc1` [Example 13, 3-(4-Methoxyphenylthiomethyl)-1,2,4-oxadiazole], the “Index of Inhibition” value with Eimeria tenella [1] (20μg/ml) stood at 2.

Consider `Nc1ccc(SCc2ncon2)cc1` [Example 14, 3-(4-Aminophenylthiomethyl)-1,2,4-oxadiazole], for which the inhibition in vivo at 100 mg/kg in the series with P. berghei is 41%. Besides, the “Index of Inhibition” value in the series with Eimeria tenella [1] (20μg/ml) is given as 2.

For `Fc1ccc(SCc2ncon2)cc1` [Example 15, 3-(4-Fluorophenylthiomethyl)-1,2,4-oxadiazole], the inhibition in vivo at 50 mg/kg in the series with P. berghei is 59%. The “Index of Inhibition” value with Eimeria tenella [1] (20μg/ml) was found to be 3.

Regarding `CSc1ccc(SCc2ncon2)cc1` [Example 16, 3-(4-Methylthiophenylthiomethyl)-1,2,4-oxadiazole], the inhibition in vivo at 100 mg/kg in the series with P. berghei was 4%. Also, the “Index of Inhibition” value in the series on Eimeria tenella [1] (20μg/ml) was found to be 2.

In the case of `Cc1cccc(SCc2ncon2)c1C` [Example 17, 3-(2,3-Dimethylphenylthiomethyl)-1,2,4-oxadiazole], the inhibition in vivo at 100 mg/kg with P. berghei turned out to be 62%. Moreover, the “Index of Inhibition” value in the series with Eimeria tenella [1] (20μg/ml) is given as 2.

`Cc1ccc(SCc2ncon2)c(C)c1` [Example 18, 3-(2,4-Dimethylphenylthiomethyl)-1,2,4-oxadiazole]: in the series on P. berghei, the inhibition in vivo at 100 mg/kg came out at 14%. For the same compound, the “Index of Inhibition” value in the series on Eimeria tenella [1] (20μg/ml) is given as 2.

Take `c1ccc2c(SCc3ncon3)cccc2c1` [Example 19, 3-(1-Naphthylthiomethyl)-1,2,4-oxadiazole]: the inhibition in vivo at 50 mg/kg with P. berghei worked out at 55%.

As to `Clc1ccc(SCc2ncon2)cc1Cl` [Example 20, 3-(3,4-Dichlorophenylthiomethyl)-1,2,4-oxadiazole], in the series with Eimeria tenella [1] (20μg/ml), the “Index of Inhibition” value was found to be 3.

For `Clc1cc(Cl)c(SCc2ncon2)cc1Cl` [Example 21, 3-(2,4-5-Trichlorophenylthiomethyl)-1,2,4-oxadiazole], the inhibition in vivo at 20 mg/kg in the series with P. berghei (7 × 20 mg/kg) is 18%. In addition, the inhibition in vivo at 100 mg/kg with P. berghei turned out to be 19%. Further, in the series on Eimeria tenella [1] (20μg/ml), the “Index of Inhibition” value was 4 (91-100% inhibition).

With `Cc1nc(CSc2ccc(Br)cc2)no1` [Example 22, 3-(4-Bromophenylthiomethyl)-5-methyl-1,2,4-oxadiazole], the inhibition in vivo at 100 mg/kg in the series on P. berghei is 46%. For the same compound, the “Index of Inhibition” value in the series with Eimeria tenella [1] (20μg/ml) is 2.

Turning to `Cc1nc(CSc2cccc(C)c2C)no1` [Example 23, 3-(2,3-Dimethylphenylthiomethyl)-5-methyl-1,2,4-oxadiazole], the “Index of Inhibition” value in the series with Eimeria tenella [1] (20μg/ml) worked out at 3.

Take `Cc1nc(CSc2ccc([N+](=O)[O-])cc2)no1` [Example 24, 3-(4-Nitrophenylthiomethyl)-5-methyl-1,2,4-oxadiazole]: the “Index of Inhibition” value in the series on Eimeria tenella [1] (20μg/ml) is 2.

As to `Cc1nc(CSc2ccc(Cl)cc2)no1` [Example 25, 3-(4-Chlorophenylthiomethyl)-5-methyl-1,2,4-oxadiazole], in the series on Eimeria tenella [1] (20μg/ml), the “Index of Inhibition” value is recorded as 2.

With `Brc1ccc(SCc2noc(CSc3ccc(Br)cc3)n2)cc1` [Example 26, 3,5-Di-(4-bromophenylthiomethyl)-1,2,4-oxadiazole], the inhibition in vivo at 100 mg/kg with P. berghei is 99%. Moreover, the “Index of Inhibition” value in the series with Eimeria tenella [1] (20μg/ml) is 2.

For `Clc1ccc(SCc2noc(CSc3ccc(Cl)cc3)n2)cc1` [Example 27, 3,5-Di-(4-chlorophenylthiomethyl)1,2,4-oxadiazole], the inhibition in vivo at 100 mg/kg in the series on P. berghei is 47%.

On to `Oc1ccccc1SCc1ncon1` [Example 29, 3-(2-Hydroxyphenylthiomethyl)-1,2,4-oxadiazole], for which the inhibition in vivo at 100 mg/kg with P. berghei was determined as 23%.

For the compound `FC(F)(F)c1cccc(SCc2ncon2)c1` [Example 31, 3-(3-Trifluoromethylphenylthiomethyl)-1,2,4-oxadiazole], in the series on Eimeria tenella [1] (20μg/ml), the “Index of Inhibition” value is recorded as 4 (91-100% inhibition).

As for `CCCCc1ccc(SCc2ncon2)cc1` [Example 32, 3-(4-n-Butylphenylthiomethyl)-1,2,4-oxadiazole], the “Index of Inhibition” value with Eimeria tenella [1] (20μg/ml) worked out at 2.

For `CN(C)c1ccc(SCc2ncon2)cc1` [Example 33, 3-(4-N,N-Dimethylaminophenylthiomethyl)-1,2,4-oxadiazole], in the series with P. berghei, the inhibition in vivo at 100 mg/kg amounted to 19%.

On to `CC(C)(C)c1ccc(SCc2ncon2)cc1` [Example 34, 3-(4-t-Butylphenylthiomethyl)-1,2,4-oxadiazole], for which the inhibition in vivo at 100 mg/kg in the series on P. berghei came to 28%.

`Clc1ccc(SCc2ncon2)cc1` [Example 36, 3-(4-Chlorophenylthiomethyl)-1,2,4-oxadiazole]: the “Index of Inhibition” value with Eimeria tenella [2] was 4 (91-100% inhibition).

As for `Cc1ccc(Br)c(SCc2ncon2)c1` [Example 37, 3-(2-Bromo-5-methylphenylthiomethyl)-1,2,4-oxadiazole], the “Index of Inhibition” value in the series with Eimeria tenella [1] (5μg/ml) came out at 2; in the series on Eimeria tenella [1] (20μg/ml) it was 3.

For the compound `c1ccc2cc(SCc3ncon3)ccc2c1` [Example 38, 3-(2-Naphthylthiomethyl)-1,2,4-oxadiazole], the inhibition in vivo at 100 mg/kg in the series on P. berghei came to 21%.

With `Nc1ccccc1SCc1nc(CSc2ccc(Cl)cc2)no1` [Example 40, 5-(2-aminophenylthiomethyl)-3-(4-chlorophenylthiomethyl)-1,2,4-oxadiazole], the inhibition in vivo at 100 mg/kg with P. berghei worked out at 18%.

`Nc1ccc(SCC2=NOCN2)cc1` [Example 44, 3-(4-aminophenylthiomethyl)-4,5-dihydro-1,2,4-oxadiazole]: in the series with P. berghei, the inhibition in vivo at 100 mg/kg stood at 10%.

Turning to `N#CSc1ccc(SCc2ncon2)cc1` [Example 45, 3-(4-Thiocyanatophenylthiomethyl)-1,2,4-oxadiazole], the inhibition in vivo at 10 mg/kg in the series on P. berghei (7 × 10 mg/kg) came to 34%. Further, the “Index of Inhibition” value in the series with Eimeria tenella [1] (5μg/ml) was found to be 2.
